Values of other authors as cited in patent US20070213388A1, “Acetylcholinesterase Inhibitors and N-Methyl-D-Aspartate Antagonists Useful in the Treatment of Cognitive Disorders” (priority 2004, published 2007).
pIC50: −log10 of the molar value.

Assays:
cholinesterase = conditions: see WO 00/248150
[1] = rats, i.v. dosing
AChE = target: T1, AChE (Rattus norvegicus, UniProt P37136); conditions: rats, after phenserine administration
T1 construct: from tissue; host or cells: rat
T1 sequence (P37136 32-614): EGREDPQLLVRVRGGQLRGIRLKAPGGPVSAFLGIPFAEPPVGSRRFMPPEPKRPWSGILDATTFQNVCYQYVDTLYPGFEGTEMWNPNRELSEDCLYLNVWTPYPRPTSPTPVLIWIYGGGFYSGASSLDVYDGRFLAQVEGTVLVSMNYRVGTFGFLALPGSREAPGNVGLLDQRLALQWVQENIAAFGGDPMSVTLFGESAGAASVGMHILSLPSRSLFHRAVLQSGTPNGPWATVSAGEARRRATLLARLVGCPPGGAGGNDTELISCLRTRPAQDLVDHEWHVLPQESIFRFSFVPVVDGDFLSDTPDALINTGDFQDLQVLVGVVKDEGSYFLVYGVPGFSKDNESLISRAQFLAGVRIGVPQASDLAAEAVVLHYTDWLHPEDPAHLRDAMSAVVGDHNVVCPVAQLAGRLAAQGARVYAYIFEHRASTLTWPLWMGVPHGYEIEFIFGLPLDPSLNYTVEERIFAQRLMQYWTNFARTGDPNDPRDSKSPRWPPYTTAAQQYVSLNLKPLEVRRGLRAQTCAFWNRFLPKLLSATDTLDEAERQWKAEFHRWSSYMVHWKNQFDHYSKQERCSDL

brain ACh levels = conditions: conscious, freely-moving rats, striatal microdialysis
[2] = target: neuronal receptors (NMDA receptor); conditions: at -67 mV
[3] = tested on: cytochrome P450 (CYP 450) isoenzymes; conditions: in vitro
[4] = not given; remark: listed apart in the source

CN1CC[C@@]2(C)c3cc(OC(=O)Nc4ccccc4)ccc3N(C)C12 (single isomer, unassigned; (+)) [(+)-phenserine]
cholinesterase activity (cholinesterase): lacks cholinesterase activity

CN1CC[C@]2(C)c3cc(OC(=O)Nc4ccccc4)ccc3N(C)C12 (single isomer, unassigned; (-)) [phenserine, (−)-N-phenylcarbamoyl eseroline]
brain drug levels relative to plasma [1]: 10 fold
time to peak drug levels [1]: ≤ 5 min
half-life of brain drug levels ([1]; brain): 8.5 min
half-life of plasma drug levels ([1]; plasma): 12.6 min
inhibition of AChE (AChE): > 70%
rise in brain ACh levels (brain ACh levels): greater than 3 fold

CC12CC3CC(C)(C1)CC(N)(C3)C2.Cl [memantine, 1-amino-3,5-dimethyladamantane hydrochloride]
pIC50 [2]: 5.85
CSF/serum ratio (crosses the blood brain barrier): 0.52
terminal elimination half-life (humans, oral dose): 60 to 80 h
inhibition of cytochrome P450 (CYP 450) isoenzymes [3]: does not inhibit
water solubility [4]: water soluble
